As usually defined, the Vmax is the top rate of the reaction or transport when substrate is in excess. For orientation: Km means the concentration of substrate that gives half-maximal velocity.

Here are results for three molecules from paper PMC5736782, “The Differential Absorption of a Series of P-Glycoprotein Substrates in Isolated Perfused Lungs from Mdr1a/1b Genetic Knockout Mice can be Attributed to Distinct Physico-Chemical Properties: an Insight into Predicting Transporter-Mediated, Pulmonary Specific Disposition” (Pharmaceutical Research, 2017).

Where two headings read alike, the source gives them in different places.

Data set [1] concerns the target T1, mouse Bcrp (Mus musculus, UniProt Q7TMS5).
T1 construct: purchased Corning (Gentest), Germany
T1 sequence (Q7TMS5 1-657): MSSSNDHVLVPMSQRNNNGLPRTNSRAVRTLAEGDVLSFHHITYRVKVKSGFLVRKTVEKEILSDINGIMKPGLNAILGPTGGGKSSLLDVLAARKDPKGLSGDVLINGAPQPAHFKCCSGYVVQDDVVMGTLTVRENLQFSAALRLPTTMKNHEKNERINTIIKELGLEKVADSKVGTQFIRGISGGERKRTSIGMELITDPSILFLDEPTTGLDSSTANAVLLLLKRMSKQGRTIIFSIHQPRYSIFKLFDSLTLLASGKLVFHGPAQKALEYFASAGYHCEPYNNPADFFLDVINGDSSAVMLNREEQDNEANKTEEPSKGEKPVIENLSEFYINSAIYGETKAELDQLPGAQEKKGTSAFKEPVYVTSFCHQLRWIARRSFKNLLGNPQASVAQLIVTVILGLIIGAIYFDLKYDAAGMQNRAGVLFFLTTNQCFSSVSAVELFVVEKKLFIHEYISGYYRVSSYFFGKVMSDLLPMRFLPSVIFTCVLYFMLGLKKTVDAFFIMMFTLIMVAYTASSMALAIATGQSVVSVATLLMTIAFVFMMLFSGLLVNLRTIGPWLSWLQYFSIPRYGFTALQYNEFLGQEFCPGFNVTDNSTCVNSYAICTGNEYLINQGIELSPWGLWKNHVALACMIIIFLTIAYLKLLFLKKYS
The data set is described as follows: Gentest ABC transporter membrane ATPase assay. The data set is classed as biochemical. As to conditions: ATPase; 0 indicates no enzyme turnover.
Excerpt: (§1) The Gentest ATPase assay (Corning, Germany) was used to investigate the binding kinetics of the panel of P-gp substrates against membranes constituted to display human MDR1, mouse Mdr1a, mouse Mdr1b and mouse Bcrp. The assays measure the accumulation of inorganic phosphate (absorbance at 800 nm) produced in the breakdown of ATP to ADP. […] The assays were used in accordance with the manufacturer’s protocol to calculate (GraphPad Prism) the Michaelis-Menten parameters Km and VMAX. For the assay test compounds were serially diluted to produce an assay concentration range of 0–300 μM with the kinetics of ATP turnover examined over 30 min at 37°C.

Data set [2] addresses mouse Mdr1a (Mus musculus, UniProt P21447). The data set is described as follows: Gentest ABC transporter membrane ATPase assay. As to conditions: 0–300 μM, 30 min, 37°C.
Data set [3] can be described thus: Multi-lamellar liposome vesicle (MLV) partitioning. The data set is classed as physicochemical. The note with it: (C0−CS)/C0, 1 μg/mL, 4 h, 37°C, PBS pH 7.4. As to the method:
MLVs were formed as previously described ([20]). Briefly, solutions of 8 mg phosphatidylcholine and 2 mg phosphatidylglycerol in 10 mL chloroform were completely dried to a lipid film (rotation under vacuum).
These preparations were then incubated at 37°C for 4 h under shaking conditions to allow equilibration of compound between the lipid and aqueous fractions. The MLVs were then pelleted and 100 μL of supernatant removed for analysis by radiometric or LC-MS/MS methods as described above. Partitioning into the MLVs was determined according to Eq. 3:3 MLVpartitioning=C0−CS/C0
where C0 is the initial compound concentration (1 μg/mL) and CS is the compound concentration present in the aqueous supernatant at the end of 4 h incubation.

Data set [4] is described as follows: Immobilised artificial membrane (IAM) chromatography. Type of data set: physicochemical. The note with it: extrapolated to 100% water; mean of four experiments. The protocol: IAM chromatography provided an experimental measure of substrate membrane affinity and phospholipid interaction. The IAM column (Regis Technologies Inc., Hichrom, Reading, UK; IAM.PC.DD2 10 cm x 4.6 mm ID column) was run under isocratic eluting conditions with the retention of all compounds determined under three mobile phase conditions: 10%, 20% and 30% acetonitrile in water, and from which the theoretical retention time in 100% water was calculated by linear regression. LogK^IAM values were calculated according to Eq. 2:2 LogK^IAM=LogTr−T0/T0
where Tr and T0 are respectively the retention times of the substrate in 100% water and of the unretained compound, i.e. eluting within the solvent front of 75 s in all experiments.

Data set [5] concerns the target human MDR1 (Homo sapiens, UniProt P08183). Nature of the data set: Gentest ABC transporter membrane ATPase assay. The note with it: ATPase, 0–300 μM, 30 min, 37°C.
Excerpt: as §1
Data set [6] addresses human MDR1 (P-gp) (Homo sapiens, UniProt P08183). Nature of the data set: Gentest ABC transporter membrane ATPase assay. The note with it: human.
Excerpt: as §1
For data set [7], the target named is mouse Mdr1b (Mus musculus, UniProt P06795). Nature of the data set: Gentest ABC transporter membrane ATPase assay. The note with it: 0–300 μM, 30 min, 37°C.
Excerpt: as §1
Data set [8] deals with P-gp (Mdr1a/1b) in mouse intestinal segments. The data set is described as follows: Ussing chamber intestinal permeability, ileal segments Mdr1a/1b (+/+) vs (−/−). As to conditions: for Mdr1a/1b (−/−) Permeability coefficient: P-gp knockout intestinal segments; for Mdr1a/1b (−/−) Permeability coefficient / Mdr1a/1b (+/+) Permeability coefficient: mucosal to serosal, 50 μM, 180 min; for Mdr1a/1b (+/+) Permeability coefficient: wild-type intestinal segments.
Description: (§2) The bathing fluid for both mucosal and serosal surfaces (3 mL volume in each chamber) comprised oxygenated Krebs-Henseleit buffer maintained at 37°C (heating block) under stirred conditions (gas flow manifold). […] Any intestinal segments presenting an initial TEER of lower than 80 Ω.cm^2 were discarded prior to the experiment, likewise any segments whose TEER decreased by more than 10% over the course of the experiment were excluded.
(§3) Thereafter permeability coefficients were determined according to Eq. 4:4 ρ=dM/dt/A^∗C0

In data set [9] the test system is P-glycoprotein (Mdr1a/Mdr1b) in isolated perfused mouse lung. Nature of the data set: Isolated perfused mouse lung (IPML) airway-to-perfusate absorption, Mdr1a/1b (+/+) vs (−/−). As to the method:
The atria and the lower half of the heart were cut to allow the free flow of perfusate. The lungs were removed and suspended vertically in a custom water-jacketed glass thorax (Radleys, Essex, UK) maintained at 37°C.
Following dosing of compound into the IPML airways serial samples (250 μL) were collected for bioanalysis from the 10 mL recirculating perfusate reservoir. Each sample collected from the reservoir was replaced with an equal volume of fresh warmed, oxygenated perfusate. Upon termination of the experiment the dose solutions, apparatus washings and perfusate samples were collected for mass balance calculations enabling determination of the actual total dose delivered to the lungs.
Radioactive compounds were directly analysed by liquid scintillation counting. Volumes of 50 μL perfusate samples were mixed with 3 mL of Scintisafe 3 Liquid Scintillation Fluid (Fisher, UK) and transferred to vials for scintillation counting using a TriCarb 2900TR (Packard Bioscience, USA).
After accounting for the mass of compound removed at each sample point, plots of the cumulative ‘%deposited dose absorbed’ versus ‘time’ were generated and subject to nonlinear regression analysis according to a first-order absorption one-compartment accumulating model (Eq. 1) to generate estimates for the extent (F) and rate (Ka) of absorption from the IPML airways to the recirculating perfusate.
The data was also subject to standard non-compartmental analysis, specifically Area Under Curve (AUC0–30 min) of ‘%deposited dose absorbed’ versus ‘time’ (units: %Dose.min) and reflecting for the exclusively accumulating perfusate ‘compartment’ the exposure arising from the IPML absorption process alone.

Data set [10] relates to P-gp (Mdr1a/1b) in mouse intestinal segments.
Description: as §2, §3
Data set [11] relates to P-gp. On the set-up: method as in PMID 23670704. The note with it: IPRL and IPML models; cited from earlier work.

Chain of mouse Mdr1a (P21447 whole entry): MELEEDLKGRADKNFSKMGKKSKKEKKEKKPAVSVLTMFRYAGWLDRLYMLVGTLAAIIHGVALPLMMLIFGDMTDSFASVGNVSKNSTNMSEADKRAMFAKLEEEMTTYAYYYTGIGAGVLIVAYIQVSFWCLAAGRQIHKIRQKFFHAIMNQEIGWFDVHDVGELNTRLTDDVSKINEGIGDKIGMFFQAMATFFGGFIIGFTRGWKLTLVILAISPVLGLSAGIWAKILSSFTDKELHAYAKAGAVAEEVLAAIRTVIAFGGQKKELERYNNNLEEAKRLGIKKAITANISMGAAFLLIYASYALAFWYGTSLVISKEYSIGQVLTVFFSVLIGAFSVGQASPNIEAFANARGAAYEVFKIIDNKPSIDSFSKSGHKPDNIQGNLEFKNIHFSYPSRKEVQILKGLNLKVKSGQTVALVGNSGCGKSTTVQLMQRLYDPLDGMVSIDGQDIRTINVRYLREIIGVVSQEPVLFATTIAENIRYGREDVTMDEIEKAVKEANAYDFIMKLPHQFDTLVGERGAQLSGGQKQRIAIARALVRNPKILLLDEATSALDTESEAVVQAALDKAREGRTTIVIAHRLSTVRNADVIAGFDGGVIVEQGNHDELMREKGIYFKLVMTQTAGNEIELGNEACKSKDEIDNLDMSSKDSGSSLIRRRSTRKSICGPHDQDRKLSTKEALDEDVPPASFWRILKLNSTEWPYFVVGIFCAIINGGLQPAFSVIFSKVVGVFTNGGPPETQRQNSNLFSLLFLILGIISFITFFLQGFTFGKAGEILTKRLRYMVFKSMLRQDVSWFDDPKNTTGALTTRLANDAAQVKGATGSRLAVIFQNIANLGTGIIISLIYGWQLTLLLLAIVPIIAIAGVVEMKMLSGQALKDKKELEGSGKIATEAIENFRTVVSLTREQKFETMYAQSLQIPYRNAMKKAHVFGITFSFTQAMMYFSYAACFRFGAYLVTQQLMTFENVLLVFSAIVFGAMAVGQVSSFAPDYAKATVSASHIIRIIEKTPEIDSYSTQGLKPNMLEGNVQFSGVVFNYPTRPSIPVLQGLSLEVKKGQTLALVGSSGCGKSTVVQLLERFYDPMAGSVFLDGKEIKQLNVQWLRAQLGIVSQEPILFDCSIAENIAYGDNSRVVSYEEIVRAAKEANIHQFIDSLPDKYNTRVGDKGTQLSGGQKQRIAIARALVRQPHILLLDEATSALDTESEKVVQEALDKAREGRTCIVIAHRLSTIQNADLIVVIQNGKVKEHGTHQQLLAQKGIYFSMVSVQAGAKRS
Chain of human MDR1 (P08183 whole entry): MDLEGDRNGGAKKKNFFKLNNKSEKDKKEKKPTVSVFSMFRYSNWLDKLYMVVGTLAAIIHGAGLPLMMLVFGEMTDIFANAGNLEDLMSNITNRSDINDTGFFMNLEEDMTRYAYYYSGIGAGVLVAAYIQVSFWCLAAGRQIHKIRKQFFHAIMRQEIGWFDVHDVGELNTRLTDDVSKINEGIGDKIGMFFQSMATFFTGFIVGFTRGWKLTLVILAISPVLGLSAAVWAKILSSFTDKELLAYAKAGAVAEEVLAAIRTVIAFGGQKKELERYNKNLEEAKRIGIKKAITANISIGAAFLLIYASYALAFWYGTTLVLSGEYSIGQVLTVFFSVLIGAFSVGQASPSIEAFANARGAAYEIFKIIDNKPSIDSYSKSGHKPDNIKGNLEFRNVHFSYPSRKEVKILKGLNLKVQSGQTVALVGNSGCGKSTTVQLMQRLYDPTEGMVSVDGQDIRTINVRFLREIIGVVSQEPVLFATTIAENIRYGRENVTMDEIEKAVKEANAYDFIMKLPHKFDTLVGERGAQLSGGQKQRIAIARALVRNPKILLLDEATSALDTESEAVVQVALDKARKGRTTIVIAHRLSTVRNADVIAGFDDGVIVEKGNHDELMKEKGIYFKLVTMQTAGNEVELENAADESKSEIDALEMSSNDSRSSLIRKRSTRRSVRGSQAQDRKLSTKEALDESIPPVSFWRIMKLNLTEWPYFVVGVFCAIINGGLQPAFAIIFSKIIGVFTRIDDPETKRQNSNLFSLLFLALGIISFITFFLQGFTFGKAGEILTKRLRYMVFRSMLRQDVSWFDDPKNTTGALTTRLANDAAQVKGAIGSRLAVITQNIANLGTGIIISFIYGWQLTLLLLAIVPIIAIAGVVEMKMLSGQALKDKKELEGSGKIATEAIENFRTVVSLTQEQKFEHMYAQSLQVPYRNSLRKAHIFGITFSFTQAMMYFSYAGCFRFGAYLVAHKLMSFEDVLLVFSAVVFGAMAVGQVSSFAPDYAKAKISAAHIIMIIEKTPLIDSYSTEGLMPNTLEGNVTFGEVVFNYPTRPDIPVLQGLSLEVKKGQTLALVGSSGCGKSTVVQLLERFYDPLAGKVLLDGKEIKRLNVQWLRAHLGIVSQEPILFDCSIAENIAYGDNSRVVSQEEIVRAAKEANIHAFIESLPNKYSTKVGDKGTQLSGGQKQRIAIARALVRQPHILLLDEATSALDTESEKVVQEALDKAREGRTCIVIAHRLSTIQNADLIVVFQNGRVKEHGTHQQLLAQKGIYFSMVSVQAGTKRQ
Chain of mouse Mdr1b (P06795 whole entry): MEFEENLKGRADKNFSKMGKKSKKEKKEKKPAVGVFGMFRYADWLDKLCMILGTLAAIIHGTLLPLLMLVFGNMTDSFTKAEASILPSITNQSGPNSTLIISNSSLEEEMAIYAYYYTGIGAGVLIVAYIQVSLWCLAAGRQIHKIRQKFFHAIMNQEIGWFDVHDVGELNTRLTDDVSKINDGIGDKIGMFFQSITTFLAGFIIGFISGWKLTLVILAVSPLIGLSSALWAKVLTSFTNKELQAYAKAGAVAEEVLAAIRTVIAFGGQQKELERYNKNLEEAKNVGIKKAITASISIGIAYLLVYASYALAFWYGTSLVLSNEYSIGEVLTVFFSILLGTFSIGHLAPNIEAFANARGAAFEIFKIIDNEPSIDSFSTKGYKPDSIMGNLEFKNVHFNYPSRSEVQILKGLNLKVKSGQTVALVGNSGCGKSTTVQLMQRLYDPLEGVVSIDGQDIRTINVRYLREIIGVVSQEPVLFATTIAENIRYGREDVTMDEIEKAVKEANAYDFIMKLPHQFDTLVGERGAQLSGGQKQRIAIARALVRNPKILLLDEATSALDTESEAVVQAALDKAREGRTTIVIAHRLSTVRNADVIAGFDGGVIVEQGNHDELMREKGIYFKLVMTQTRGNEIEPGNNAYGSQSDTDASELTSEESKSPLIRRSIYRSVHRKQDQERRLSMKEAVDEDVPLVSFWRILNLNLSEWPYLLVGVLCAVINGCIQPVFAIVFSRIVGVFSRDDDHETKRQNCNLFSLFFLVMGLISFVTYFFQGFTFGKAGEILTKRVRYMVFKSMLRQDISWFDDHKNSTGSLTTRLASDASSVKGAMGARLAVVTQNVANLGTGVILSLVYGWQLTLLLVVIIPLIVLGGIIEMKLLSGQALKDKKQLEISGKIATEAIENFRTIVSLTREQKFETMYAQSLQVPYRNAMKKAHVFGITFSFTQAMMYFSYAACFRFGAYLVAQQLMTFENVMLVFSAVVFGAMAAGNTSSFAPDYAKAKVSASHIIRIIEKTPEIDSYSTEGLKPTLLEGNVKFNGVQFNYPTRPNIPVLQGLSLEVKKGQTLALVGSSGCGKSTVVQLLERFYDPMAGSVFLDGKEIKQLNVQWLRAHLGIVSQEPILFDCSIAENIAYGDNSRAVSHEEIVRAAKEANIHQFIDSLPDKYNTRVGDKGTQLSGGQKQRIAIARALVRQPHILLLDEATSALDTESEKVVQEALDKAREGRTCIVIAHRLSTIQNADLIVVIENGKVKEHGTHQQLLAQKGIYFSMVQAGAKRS
Chain of human MDR1 (P-gp) (P08183 whole entry): as the sequence (P08183 whole entry) above

For `COc1cc2c(c(OC)c1OC)-c1ccc(OC)c(=O)cc1[C@@H](NC(C)=O)CC2` [Colchicine, colchicine], the Vmax is listed as 0 µM/min in [1], 22.7 µM/min in data set [2], 16.6 µM/min in data set [5] and 28.4 µM/min in data set [7]. Further, the Km in data set [2] worked out at 9.1 µM; in [7], 7.7 µM. The “MLV Partitioning” value in data set [3] was found to be 0.86. Moreover, the “LogK^IAM” value in data set [4] is 1.30. In addition, the Michaelis-Menten constant (Km) at 30 min in data set [6] worked out at 15.4 µM. Besides, in data set [8], the “Mdr1a/1b (−/−) Permeability coefficient” value is 14.95 ± 3.18 cm/s (x10^−6). The “Ratio Permeability (−/−): (+/+)” value in data set [8] (intestinal Papp KO:WT) turned out to be 2.16. Moreover, the “Mdr1a/1b (+/+) Permeability coefficient” value in [8] is reported as 6.93 ± 3.15 cm/s (x10^−6). For the same molecule, the “Ratio AUCs (-/-) : (+/+)” value in data set [9] (IPML KO:WT) came to 1.43. For the same molecule, the “Group (impact of Mdr1a/1b knockout on IPML absorption)” value in data set [9] (categorisation from IPML outcomes) is recorded as “GROUP B”. For the same molecule, the “Mdr1a/1b (-/-) AUC(0-30)” value in data set [9] (knockout IPML, % deposited dose absorbed vs time in perfusate) is listed as 571 %.min. In data set [9] (knockout IPML, within 30 minutes), the “Mdr1a/1b (-/-) % Deposited Dose absorbed” value was determined as 25.4%. The “Mdr1a/1b (+/+) ‘F’ estimate by model fit [95% CI)” value in data set [9] (male, mouse) is 16.6 [14.7 to 18.4]. In addition, in data set [9] (male, mouse), the “Mdr1a/1b (-/-) ‘F’ estimate by model fit [95% CI)” value is 23.3 [20.9 to 25.7]. The “Mdr1a/1b (+/+) AUC(0-30)” value in [9] (wild-type IPML, % deposited dose absorbed vs time in perfusate) worked out at 398 %.min. For the same molecule, in data set [9] (wild-type IPML, within 30 minutes), the “Mdr1a/1b (+/+) % Deposited Dose absorbed” value is reported as 17.7%.

Take `CC(C)(C)NCC(O)c1ccc(O)c(CO)c1` (centres unmarked) [Salbutamol, salbutamol]: the Vmax was found to be 0 µM/min in data set [1], 52.3 µM/min in data set [2], 45.6 µM/min in data set [5] and 49.1 µM/min in data set [7]. Moreover, the “MLV Partitioning” value in data set [3] was determined as 0.88. Further, in data set [4], the “LogK^IAM” value is on record as 1.47. For the same molecule, the “Mdr1a/1b (−/−) Permeability coefficient” value in [10] was 14.90 ± 2.16 cm/s (x10^−6). Moreover, in data set [8], the “Mdr1a/1b (+/+) Permeability coefficient” value is 10.6 ± 2.30 cm/s (x10^−6). Moreover, the “Group (impact of Mdr1a/1b knockout on IPML absorption)” value in data set [9] was “GROUP B”. Also, the “Mdr1a/1b (+/+) ‘F’ estimate by model fit [95% CI)” value in data set [9] (male, mouse, 50 μM) is 24.9 [21.8 to 28.1]. Besides, in [9] (male, mouse, 50 μM), the “Mdr1a/1b (-/-) ‘F’ estimate by model fit [95% CI)” value was 30.2 [28.2 to 32.2].

For the molecule `CC(C)(C)NC(=O)[C@@H]1C[C@@H]2CCCC[C@@H]2CN1C[C@@H](O)[C@H](Cc1ccccc1)NC(=O)[C@H](CC(N)=O)NC(=O)c1ccc2ccccc2n1` [Saquinavir, saquinavir], the “effect of P-gp inhibition (GF120918) upon pulmonary absorption” value in [11] was “unaffected”. In addition, the Vmax in data set [1] stood at 0 µM/min. Also, in data set [2], the Km was found to be 31.7 µM and the Vmax was 39.5 µM/min. In addition, the “MLV Partitioning” value in data set [3] is 0.45. Moreover, the “LogK^IAM” value in data set [4] is 1.24. Besides, the Vmax in data set [5] is given as 41.3 µM/min. For the same molecule, in [6] (membranes displaying human MDR1 (Gentest ATPase assay)), the Km at 30 min is 24.9 µM. Also, in data set [7], the Km came out at 32 µM and the maximal velocity (Vmax) was found to be 47.1 µM/min. Also, in data set [8], the “Mdr1a/1b (−/−) Permeability coefficient” value is recorded as 15.73 ± 3.52 cm/s (x10^−6) and the “Mdr1a/1b (+/+) Permeability coefficient” value is 1.56 ± 0.69 cm/s (x10^−6). Also, in data set [9] (male, mouse, 50 μM), the “Mdr1a/1b (+/+) ‘F’ estimate by model fit [95% CI)” value was 25.5 [11.4 to 39.6] and the “Mdr1a/1b (-/-) ‘F’ estimate by model fit [95% CI)” value was 29.1 [19.5 to 38.6]. For the same molecule, in data set [9] (male, mouse, 30 min, 50 μM), the “Mdr1a/1b (+/+) % Deposited Dose absorbed” value is recorded as 20.0% and the “Mdr1a/1b (-/-) % Deposited Dose absorbed” value turned out to be 20.0%.
